Two molecules from ChEMBL document CHEMBL5042524, “Discovery of Novel Histone Deacetylase 6 (HDAC6) Inhibitors with Enhanced Antitumor Immunity of Anti-PD-L1 Immunotherapy in Melanoma” (J Med Chem, 2022) can be followed below.

≈ marks a conversion by molar mass, not a printed value. Calls of active or inactive are those of the source. No cut-off for these calls is given here.

For data set [1], the system named is B16-F10. Put plainly: Antitumor activity against mouse B16-F10 cells allografted in C57BL/6 mouse assessed as tumor growth inhibition at 10 mg/kg, ip administered daily for 14 days by caliper method (Rvb= 63%). It is filed as functional. The conditions noted are these: 336 h, time 14 day, read-out: TGI.
A short description of data set [2]: Apparent volume of distribution in Sprague-Dawley rat at 2 mg/kg, iv measured upto 48 hrs by LC-MS/MS analysis. Particulars: in vivo. The format is ADME, organism-based.
Data set [3] in a line: Cmax in Sprague-Dawley rat at 10 mg/kg, po measured upto 48 hrs by LC-MS/MS analysis. It is filed as ADME, organism-based. Also noted: route oral, dose 10 mg/kg, time <=48. Particulars: in vivo.
Data set [4] has as its system B16-F10. The data set can be described thus: Antitumour activity against mouse B16-F10 cells allografted in C57BL/6 mouse model assessed as increase in CD3 positive/CD4 positive cells in tumor at 50 mg/kg, ip administered for 14 days in presence of 2-(5-chloro-2-(3-cyanobenzyloxy)-4-((2-methylbiphenyl-3-yl)methoxy)benzylamino)-2-methylpropanoic acid by flow cytometry analysis (Rvb= 8.73%). It is filed as functional. Particulars: time 14 day. For orientation: A flow cytometer gives signals particle by particle.

The test system of data set [5] is Mus musculus. Put plainly: Myelosuppression in C57BL/6 mouse assessed as change in lymphocyte count at 50 mg/kg, IG administered once daily via gavage for 14 days. The format is toxicity, organism-based. The conditions noted are these: in vivo, po, 336 h, time 14 day.
Data set [6] in a line: Half life in Sprague-Dawley rat at 2 mg/kg, iv measured upto 48 hrs by LC-MS/MS analysis. It is filed as ADME, organism-based. Particulars: in vivo.
Data set [7] can be described thus: Toxicity in C57BL/6 mouse bearing B16-F10 tumor assessed as morphological changes in heart at 50 mg/kg, ip administered for 14 days by H and E staining based microscopic analysis. The format is organism-based. The conditions noted are these: in vivo, 336 h, time 14 day.
Data set [8] can be described thus: Toxicity in C57BL/6 mouse allografted with B16-F10 cells assessed as body weight loss at 50 mg/kg, ip administered daily for 14 days. It is filed as organism-based. Particulars: in vivo, 336 h, time 14 day.
A short description of data set [9]: AUC(0 to t) in Sprague-Dawley rat at 10 mg/kg, po measured upto 48 hrs by LC-MS/MS analysis. Particulars: in vivo. The arrangement: route oral, dose 10 mg/kg, time <=48. It is filed as ADME, organism-based.
The test system of data set [10] is B16-F10. The data set can be described thus: Antitumour activity against mouse B16-F10 cells allografted in C57BL/6 mouse model assessed as increase in CD3 positive/CD4 positive cells in tumor at 50 mg/kg, ip administered for 14 days by flow cytometry analysis (Rvb= 8.73%). It is filed as functional. Particulars: time 14 day.
A short description of data set [11]: Toxicity in C57BL/6 mouse bearing B16-F10 tumor assessed as morphological changes in kidney at 50 mg/kg, ip administered for 14 days by H and E staining based microscopic analysis. The format is organism-based. The conditions noted are these: in vivo, 336 h, time 14 day.
Data set [12] has as its system B16-F10. The data set can be described thus: Antitumor activity in mouse B16-F10 cells allografted in C57BL/6 mouse assessed as tumor growth inhibition at 50 mg/kg, ip administered for 14 days in presence of 2-(5-chloro-2-(3-cyanobenzyloxy)-4-((2-methylbiphenyl-3-yl)methoxy)benzylamino)-2-methylpropanoic acid by caliper method (Rvb= 63%). The conditions noted are these: 336 h, time 14 day, read-out: TGI. It is filed as functional.

Data set [13] can be described thus: Potency index, ratio of CAY10603 IC50 to test compound IC50 for antiproliferative activity against human YCC3/7 cells assessed as cell growth inhibition. The format is functional.
Data set [14] can be described thus: Inhibition of pig brain tubulin polymerization by spectrophotometric analysis. Also noted: species or system Sus scrofa.
Data set [15] can be described thus: MRT(0 to t) in Sprague-Dawley rat at 2 mg/kg, iv measured upto 48 hrs by LC-MS/MS analysis. It is filed as ADME, organism-based. The conditions noted are these: in vivo.
A short description of data set [16]: Apparent volume of distribution in Sprague-Dawley rat at 10 mg/kg, po measured upto 48 hrs by LC-MS/MS analysis. It is filed as ADME, organism-based. Particulars: in vivo.
Data set [17] is described as follows: MRT(0 to t) in Sprague-Dawley rat at 10 mg/kg, po measured upto 48 hrs by LC-MS/MS analysis. It is filed as ADME, organism-based. The conditions noted are these: in vivo.
Data set [18] is described as follows: AUC (0 to infinity) in Sprague-Dawley rat at 10 mg/kg, po measured upto 48 hrs by LC-MS/MS analysis. It is filed as ADME, organism-based. The arrangement: route oral, dose 10 mg/kg, time <=48. Particulars: in vivo.
A short description of data set [19]: Half life in Sprague-Dawley rat at 10 mg/kg, po measured upto 48 hrs by LC-MS/MS analysis. The format is ADME, organism-based. Particulars: in vivo.
The nature of data set [20]: Aqueous solubility of the compound incubated for 24 hrs by HPLC based shake-flask method. The format is physicochemical. The conditions noted are these: buffer.
Data set [21] relates to B16-F10. Put plainly: Antitumour activity against mouse B16-F10 cells allografted in C57BL/6 mouse model assessed as increase in CD3 positive/CD8 positive cells in tumor at 50 mg/kg, ip administered for 14 days by flow cytometry analysis (Rvb= 6.65%). The format is functional. The conditions noted are these: time 14 day.
Data set [22] is described as follows: Oral bioavailability in Sprague-Dawley rat at 10 mg/kg measured upto 48 hrs by LC-MS/MS analysis. The format is ADME, organism-based. The conditions noted are these: in vivo.
Data set [23] can be described thus: MRT (0 to infinity) in Sprague-Dawley rat at 2 mg/kg, iv measured upto 48 hrs by LC-MS/MS analysis. The format is ADME, organism-based. The conditions noted are these: in vivo.
The nature of data set [24]: Clearance in Sprague-Dawley rat at 2 mg/kg, iv measured upto 48 hrs by LC-MS/MS analysis. It is filed as ADME, organism-based. Particulars: in vivo.
The subject of data set [25] is B16-F10. Put plainly: Antitumour activity against mouse B16-F10 cells allografted in C57BL/6 mouse model assessed as increase in CD3 positive/CD8 positive cells in tumor at 50 mg/kg, ip administered for 14 days in presence of 2-(5-chloro-2-(3-cyanobenzyloxy)-4-((2-methylbiphenyl-3-yl)methoxy)benzylamino)-2-methylpropanoic acid by flow cytometry analysis (Rvb= 6.65%). It is filed as functional. The conditions noted are these: time 14 day.

The nature of data set [26]: AUC(0 to t) in Sprague-Dawley rat at 2 mg/kg, iv measured upto 48 hrs by LC-MS/MS analysis. The conditions noted are these: in vivo. It is filed as ADME, organism-based. The arrangement: route intravenous, dose 2 mg/kg, time <=48.
The nature of data set [27]: Cmax in Sprague-Dawley rat at 2 mg/kg, iv measured upto 48 hrs by LC-MS/MS analysis. The conditions noted are these: in vivo. The arrangement: route intravenous, dose 2 mg/kg, time <=48. It is filed as ADME, organism-based.
The test system of data set [28] is B16-F10. The data set can be described thus: Antitumour activity against mouse B16-F10 cells allografted in C57BL/6 mouse model assessed as decrease in PD-L1 expression level by Western blot analysis relative to control. The arrangement: scale not given: the % may be the effect or the level left. The format is functional. In general terms: A western blot detects proteins with antibodies after separation by electrophoresis.

Data set [29] in a line: Tmax in Sprague-Dawley rat at 2 mg/kg, iv measured upto 48 hrs by LC-MS/MS analysis. It is filed as ADME, organism-based. Particulars: in vivo.
Data set [30] can be described thus: Tmax in Sprague-Dawley rat at 10 mg/kg, po measured upto 48 hrs by LC-MS/MS analysis. The format is ADME, organism-based. The conditions noted are these: in vivo.
Data set [31] relates to B16-F10. The data set can be described thus: Induction of cell cycle arrest in mouse B16-F10 cells assessed as decrease in cells at G1 phase at 0.1 to 1 uM incubated for 48 hrs by RNase/PI staining based flow cytometry analysis. The format is functional. The conditions noted are these: dose 0.1-1 µM.

Broadly, the Cmax is the peak of the concentration-time curve. In general, half-life refers to the time in which the quantity being followed falls by half. The term AUC(0-t) denotes exposure summed from dosing to a finite time, without extrapolation to infinity. As a reminder, the IC50 is the midpoint of a concentration-inhibition curve. Usually MRT last stands for a mean duration of stay, worked out from the concentration-time curve. One may read the AUC as the area under the concentration-time curve, a measure of exposure. For orientation: solubility (thermodynamic) means solubility found after equilibrating the solid with the medium. As usually defined, the bioavailability is the share of a dose that reaches the circulation, judged against a reference dose that is usually intravenous. What is called MRT inf is the average time that molecules of a dose stay in the body. One may read the clearance as the volume of plasma or blood freed of the substance per unit of time. As usually defined, the Tmax is the time at which the peak concentration occurs.

On to `COc1ccc(-c2ncc(C(=O)NCCCCCCC(=O)NO)s2)c(OC)c1`, for which the inhibition in vivo at 10 mg/kg in data set [1] worked out at 69%. Further, the Vz/F is 76.5 L/kg in data set [2] and 1485.8 L/kg in data set [16]. Further, the Cmax in [3] stood at 35 ng/mL; in [27] it was 875 ng/mL. Besides, the Activity in data set [4] was 26.3%; in data set [5] it was “Non-Toxic”; in data set [7], “Non-Toxic”; in [8] it was “Non-Toxic”; in data set [10], 8.72%; in [11], “Non-Toxic”. Besides, the Activity in [21] came to 6.81%; in data set [25], 16.5%; in [28], 20%. The half-life in data set [6] is 6.2 h; in data set [19], 5.8 h. Moreover, the AUC(0-t) at 48 h in data set [9] turned out to be 134 ng·h/mL; in data set [26], 318 ng·h/mL. Moreover, the inhibition in vivo at 50 mg/kg in data set [12] was 58%. Moreover, the “Ratio IC50” value in [13] stood at 12. The same molecule showed an IC50 in data set [14] greater than 100 µM. Also, the MRT last at 48 h in data set [15] was 1.1 h; in data set [17], 7.4 h. In addition, in data set [18], the area under the curve (AUC) came to 138.6 ng·h/mL. The solubility (thermodynamic) at 24 h in data set [20] was 41.3 µg/mL (≈ 101 µM). For the same molecule, in data set [22], the bioavailability amounted to 8.7%. The molecule further came in with an MRT inf in data set [23] of 1.6 h. In addition, the clearance in data set [24] is 105 mL/min/kg. For the same molecule, the time to peak (Tmax) was found to be 4.98 min in data set [29] and 5.3 h in data set [30].
Consider `COc1ccc(-c2ncc(C(=O)NCCCCCCC(=O)NO)[nH]2)c(OC)c1`, for which the result in data set [31] was Active.
